Assay results reported in patent EP0847397B1, “WATER-SOLUBLE C-RING ANALOGUES OF 20 (S)-CAMPTOTHECIN” (DR. REDDY'S RESEARCH FOUNDATION, priority 1996, dated 1997).

Columns and labels:
[1] = Lactone stability in whole blood (HPLC); assay type: in vitro ADME; conditions: 100 μM, 37°C, lactone peak area relative to zero time (100%); for Lactone Stability in Whole Blood (after 3 hours): 180 min
Experimental: 2. Lactone Stability in whole blood:
2 ml of blood from a healthy volunteer was collected in a tube containing 40 µl of heparin (572 IU) to prevent coagulation, 4 mM and 40 µM working solutions of the drug in DMSO were prepared and added to aliquots of whole blood to give final concentration of 100 µM and 1 µM respectively. The drug is incubated in whole blood at 37°C and 20 µl samples are collected into 180 µl of chilled methanol (-30°C) at different time intervals (0, 1, 2 & 3 hrs). Vortex and then centrifuge at 11000 rpm for 3 min in a microcentrifuge at room temperature. Dilute 100 µl of the supernatant with water to 300-500 µl depending upon the signal response (UV for 100 µM concentration and fluoroscence for 1 µM concentration) of the compound. 200 µl of the diluted sample is injected on to the HPLC column previously equilibrated with the mobile phase. The area under peak corrsponding to lactone forms is measured. Zero time peak area is taken as 100%, and the proportion of lactone peak area at different time points is calculated to determine the equilibrium lactone stability as obtained by consistent lactone proportion over two successive time points. (Biochemistry, 1994; 33:10325-10336 and J. Pharm. Sci., 1995; 84:518-519).

[2] = test system: NCI's 60 human tumor cell line assay; test: cells; assay type: cell-based; conditions: 60 cell, 48 h, read-out: IC50 (mean GI50 against NCI's 60 human tumor cell line assay)
Experimental: Each test compound was screened against a battery of 60 human cell lines obtained from eight organs. In a typical procedure, the cell suspensions that were diluted according to the particular cell type and the expected target cell density (5000-40,000 cells per well based on cell growth characteristics) were added into 96-well microtiter plates. Inoculates were allowed a preincubation period of 24h at 37°C. for stabilization. Dilutions at twice the intended test concentrations were added at time zero in 100-µl aliquots to microtiter plate wells. Usually test compounds were evaluated at five 10-fold dilutions. The highest well concentration used in the test is 10^-4M. The cells are then incubated in the presence of drug (the test compound) for further 48h in 5% CO2 atmosphere and 100% humidity. At the end of this time, the adherent cells are fixed to the plate by means of trichloroacetic acid, and after a number of washes, the cell layer is treated with the protein stain Sulforhodamine B. The optical density which is proportional to protein mass, is then read by automated spectrophotometric plate readers at a wavelength of 515 nm. Readings are transferred to a microcomputer and final reports are generated using especially developed software.

SMILES | mean GI50 [2] [µM] | other results
CCOC1c2cc3c(O)cccc3nc2-c2cc3c(c(=O)n21)COC(=O)[C@]3(O)CC (single isomer, unassigned) [Example 11 Diastereomer A, 5-Ethoxy-9-hydroxycamptothecin] |  | remaining at 3 h, 100 µM ([1]; human, whole blood, read-out: Lactone Stability in Whole Blood (after 3 hours)): 3.73 ± 1.5%
CCOC1c2cc3c(O)cccc3nc2-c2cc3c(c(=O)n21)COC(=O)[C@]3(O)CC (single isomer, unassigned) [Example 11 Diastereomer B, 5-Ethoxy-9-hydroxycamptothecin] |  | Lactone Stability in Whole Blood (after 3 hours) [1]: 6.15±2.53
CC[C@@]1(O)C(=O)OCc2c1cc1n(c2=O)C(OCC(F)(F)F)c2cc3cc(O)ccc3nc2-1 (single isomer, unassigned) [Example 27 Diastereomer A, 10-Hydroxy-5-trifluoroethoxycamptothecin] |  | Lactone Stability in Whole Blood (after 3 hours) [1]: 4.58±1.72
CC[C@@]1(O)C(=O)OCc2c1cc1n(c2=O)C(OCC(F)(F)F)c2cc3cc(O)ccc3nc2-1 (single isomer, unassigned) [Example 27 Diastereomer B, 10-Hydroxy-5-trifluoroethoxycamptothecin] |  | Lactone Stability in Whole Blood (after 3 hours) [1]: 11.9±2.91
CCc1c2c(nc3ccccc13)-c1cc3c(c(=O)n1C2OCCN1CCCCC1)COC(=O)[C@]3(O)CC (stereo partly drawn) [7-Ethyl-5-piperidinoethoxy camptothecin] | > 30 | 
CCc1c2c(nc3ccccc13)-c1cc3c(c(=O)n1C2OCC(F)(F)F)COC(=O)[C@]3(O)CC (stereo partly drawn) [7-Ethyl-5-trifluoroethoxycamptothecin] | 7.41 | 
CC[C@@]1(O)C(=O)OCc2c1cc1n(c2=O)C(OCCOC)c2cc3c([N+](=O)[O-])cccc3nc2-1 (stereo partly drawn) [9-Nitro-5-methoxyethoxy camptothecin] | 2.04 | 
CC[C@@]1(O)C(=O)OCc2c1cc1n(c2=O)C(OC)c2cc3ccccc3nc2-1 (stereo partly drawn) [Example 1, 5-methoxycamptothecin] | 8.5 | 
CCOC1c2c(nc3ccccc3c2CC)-c2cc3c(c(=O)n21)COC(=O)[C@]3(O)CC (stereo partly drawn) [Example 3, 5-Ethoxy-7-ethylcamptothecin] | 1.41 | 
CCOC1c2cc3c(OC)cccc3nc2-c2cc3c(c(=O)n21)COC(=O)[C@]3(O)CC (stereo partly drawn) [Example 5, 5-Ethoxy-9-methoxycamptothecin] | 2.45 | 
CCOC1c2c(nc3cccc(OC)c3c2CC)-c2cc3c(c(=O)n21)COC(=O)[C@]3(O)CC (stereo partly drawn) [Example 7, 5-Ethoxy-9-methoxy-7-ethylcamptothecin] | 2.13 | 
CCOC1c2cc3ccccc3nc2-c2cc3c(c(=O)n21)COC(=O)[C@]3(O)CC (stereo partly drawn) [Example 9, 5-Ethoxycamptothecin] | 9.54 | 
CCCCOC1c2cc3ccccc3nc2-c2cc3c(c(=O)n21)COC(=O)[C@]3(O)CC (stereo partly drawn) [Example 10, 5-butoxycamptothecin] | 6.16 | 
CCOC1c2cc3cccc([N+](=O)[O-])c3nc2-c2cc3c(c(=O)n21)COC(=O)[C@]3(O)CC (stereo partly drawn) [Example 16, 12-Nitro-5-ethoxycamptothecin] | > 30 | 
CC[C@@]1(O)C(=O)OCc2c1cc1n(c2=O)C(OC)c2cc3c(N)cccc3nc2-1 (stereo partly drawn) [Example 20, 9-amino-5-methoxycamptothecin] | 6.76 | 
CC[C@@]1(O)C(=O)OCc2c1cc1n(c2=O)C(O)c2cc3cccc([N+](=O)[O-])c3nc2-1 (stereo partly drawn) [Example 23, 12-Nitro-5-hydroxy camptothecin] | > 30 | 
CC[C@@]1(O)C(=O)OCc2c1cc1n(c2=O)C(OCCCl)c2cc3ccccc3nc2-1 (stereo partly drawn) [Example 24, 5-(2'-Chloroethoxy)camptothecin] | 4.57 | 
CC[C@@]1(O)C(=O)OCc2c1cc1n(c2=O)C(OCCF)c2cc3ccccc3nc2-1 (stereo partly drawn) [Example 29, 5-(2'-fluoroethoxy)camptothecin] | 1.58 | 
CCc1c2c(nc3ccccc13)-c1cc3c(c(=O)n1C2OCCF)COC(=O)[C@]3(O)CC (stereo partly drawn) [Example 31, 5-(2'-Fluoroethoxy)-7-ethylcamptothecin] | 4.36 | 
CC[C@@]1(O)C(=O)OCc2c1cc1n(c2=O)C(OCCO)c2cc3cc(O)ccc3nc2-1 (stereo partly drawn) [Example 33, 5-(2'-Hydroxyethoxy)-10-hydroxycamptothecin] | 8.12 | 
CC[C@@]1(O)C(=O)OCc2c1cc1n(c2=O)C(OCCN)c2cc3ccccc3nc2-1 (stereo partly drawn) [Example 36, 5-(2'-aminoethoxy) camptothecin] | 30 | 
CCc1c2c(nc3ccccc13)-c1cc3c(c(=O)n1C2OCCCN(C)C)COC(=O)[C@]3(O)CC (stereo partly drawn) [Example 38, 5-(3'-dimethylaminopropoxy)-7-ethylcamptothecin] | > 30 | 
CCc1c2c(nc3ccccc13)-c1cc3c(c(=O)n1C2OCCCl)COC(=O)[C@]3(O)CC (stereo partly drawn) [Example 40, 5-(2'-chloroethoxy)-7-ethylcamptothecin] | 2.75 | 
CCc1c2c(nc3ccccc13)-c1cc3c(c(=O)n1C2OCCN(C)C)COC(=O)[C@]3(O)CC (stereo partly drawn) [Example 41, 5-(2'-dimethylaminoethoxy)-7-ethylcamptothecin] | 13.8 | 
